Experimental data as given in patent US10272056B2, “Treatment for mitochondrial diseases” (The George Washington University a Congressionally …, priority 2015, dated 2019).

Legend:
[1] = system: ependymal cells of the choroid plexus; test: In vivo mitochondrial mass of choroid plexus (SOD2 immunohistochemistry); design: species or system mice; details: NaBt intraperitoneally in E12.5 pregnant dams, brains at E17.5, vs sham
Excerpt: FIG. 8 is a schematic and image from microscopy showing that NaBt increases in vivo the mitochondrial mass of ependymal cells of the choroid plexus.
NaBt increases in vivo the mitochondrial mass of ependymal cells of the choroid plexus. NaBt's effect on mitochondrial mass of ependymal cells from the choroid plexus was investigated. It is a highly vascularized tissue lining the brain ventricles, which is responsible for producing and secreting the cerebral spinal fluid (CSF) and for supplying growth factors and key ions to the developing and mature brain ([…]). The secretory functions of the ependymal cells are highly dependent of mitochondria to ensure active transports of small ions, water and growth factors from the blood side to the CSF side. Impairment of mitochondrial functions in the choroid plexus has been documented in neurodegenerative diseases, such as Alzheimer's disease. To test the effect of NaBt in the choroid plexus of the murine developing brain, NaBt was injected intraperitoneally in E12.5 pregnant dams before dissected the brains at E17.5. Immunohistochemistry was performed on E17.5 sectioned brains to analyze the mitochondrial mass using an antibody against the mitochondrial marker SOD2.

MELAS fibroblasts = test: Mitochondrial mass, morphology and networking (MTG live cell confocal analysis); format: cell-based, human; details: three-day exposure; NaBt 2.5 mM, TBN 1.5 mM, AN9 300 μM
Excerpt: FIG. 17A-17C are images from microscopy and graphs showing that butyrates rescue the mitochondrial phenotype in MELAS fibroblasts. (A) Confocal analysis of healthy and MELAS fibroblasts treated as indicated and labeled with the MTG dye; scale bar=10 (B) Analysis of the mitochondrial mass; n=3 (60 cells per experiment; ^‡p<0.05, unpaired T-test *p<0.05, paired T-test). (C) Analysis of Δψm (^‡p<0.05, unpaired T-test; *p<0.05, paired T-test).
(§1) Butyrates rescue the mitochondrial mass, morphology, networking, membrane potential, and cellular ATP levels in MELAS fibroblasts. Skin fibroblasts from two MELAS patients and from a healthy subject as a control were used. Dose-dependent analyses of butyrates to determine their best concentrations for eliciting an optimal mitochondrial response without cellular toxicity was performed. Healthy and MELAS fibroblasts were treated with PBS, NaBt (2.5 mM), TBN (1.5 mM), or AN9 (300 μM) for three days before labeling with the MTG dye for live cell confocal analysis.
as §1, with “networking, and” for “networking,”, “potential” for “potential, and cellular ATP levels”, “butyrates was performed” for “butyrates”, “toxicity.” for “toxicity was performed.”

neuronal cells [2] = test: Live cell Mg2+-based ATP assay; details: NaBt-treated cells
Description: (§2) FIG. 9A-9C are graphs and images from microscopy showing that NaBt enhances mitochondrial bioenergetics. (A) Flow cytometric analysis of Δψm; *p<0.001. (B) ATP levels in live cells using a Mg^2+-based assay; *p<0.001. (C) Electron microscopy of mitochondria in control and NaBt-treated cells; scale bar=200 nm.
(§3) NaBt increases mitochondrial membrane potential (Δψm) and ATP levels. The MTR-based data raised the question: could NaBt also enhance mitochondrial bioenergetics? Δψm was assessed by live cell confocal microscopy and flow cytometry using the TMRM dye, which accumulates in the mitochondrial matrix in a Δψm-dependent fashion. A 1.5-fold increase in Δψm in NaBt-treated cells was observed (FIG. 9A). To test whether enhanced Δψm led to increased ATP output, ATP levels were monitored using the live cell Mg^2+-based ATP assay, which is compatible with the TMRM dye, allowing simultaneous recordings. A 1.6-fold increase in ATP levels in NaBt-treated cells was observed (FIG. 9B), in line with the MTR- and TMRM-based findings and the elongated mitochondrial morphology.

neuronal cells [3] = test: Mitochondrial membrane potential (TMRM dye, confocal microscopy and flow cytometry); format: cell-based; details: NaBt-treated cells
Description: as §2, §3

PC12-ND6 cells = test: Mitochondrial mass (mito-GFP live cell microscopy, MTG/MTR flow cytometry); format: cell-based
Description: PC12-ND6 cells were transfected with the mito-GFP vector prior to treatment with NaBt (5 mM) for the indicated time points. Mitochondria were visualized by live cell microscopy; scale bar=5 μm.
FIG. 7A-7F show images from microscopy and graphs showing NaBt increases mitochondrial mass. (A) Live cell confocal microscopy of E17.5 hippocampal neurons; high magnification in inset; scale bar=5 (B) Quantitative analysis of the mitochondrial biomass in E17.5 neurons using an anti-CoxVα antibody; *p<0.001. (C) Live cell confocal microscopy of PC12-ND6 cells; high magnification in inset; scale bar=5 (D) Flow cytometric analysis of mitochondrial mass; *p<0.001. (E) Confocal microscopy of E17.5 brains from E12.5 pregnant dams treated with PBS (sham) or NaBt; scale bar=20 (F) Quantitative analysis of mitochondrial mass; *p<0.001.
Experimental approaches. Five distinct molecular tools were used to investigate mitochondrial biogenesis: 1) the mitochondrial-specific dyes, MitoTracker® Green (MTG) and MitoTracker® Red (MTR); 2) the mito-GFP or mito-dsRed vector to fluorescently label mitochondria; 3) antibodies against mtDNA, COXVα, or SOD2; 4) the fluorescent PicoGreen® dye labeling mtDNA; and 5) quantitative PCR to determine mtDNA copy number.
NaBt increases the mitochondrial biomass of neuronal cells in vitro and in vivo. To investigate the effect of NaBt on mitochondrial mass, PC12-ND6 cells were transfected with the mito-GFP vector before performing a time course analysis of NaBt (5 mM) treatment.
The effect of NaBt was investigated in embryonic neuronal progenitor cells, E17.5 hippocampal neurons, which were transfected with the mito-GFP vector and then exposed to various concentrations of NaBt. […] Therefore, all subsequent treatment of E17.5 hippocampal neurons with NaBt was performed in the presence of 2 mM. […] Flow cytometric analysis using MTG- or MTR-labeled cells corroborated the NaBt-mediated increase in mitochondrial mass (FIG. 7D).

[4] = flow cytometry, NaBt-treated vs control

For CCCC(=O)[O-].[Na+] [NaBt, sodium butyrate], the “mitochondrial mass of ependymal cells of the choroid plexus” value [1] was “substantial increase”, the “mitochondrial mass, morphology, and networking” value (MELAS fibroblasts) was “restored normal mitochondrial mass, morphology, and networking” and the “increase in ATP levels” value (neuronal cells [2]) was 1.6 fold. The “increase in Δψm” value (neuronal cells [3]) was 1.5 fold, the “time of maximal increase of the mitochondrial biomass” value (PC12-ND6 cells; NaBt 5 mM, mito-GFP time course) was “after three days” and the “increase in fluorescence intensity, MTR staining” value (PC12-ND6 cells; [4]) was 3.5 fold. The “increase in mitochondrial mass, MTG staining” value (PC12-ND6 cells; [4]) was “two-fold”.
